Assay results taken from patent publication US4931447A, “Cycloalkylamides of (8β)-1-alkyl-6-(substituted) ergolines” (Eli Lilly and Company, priority 1989, dated 1990).

Assays:
5HT2 Receptors = biological target: T1, 5HT2 Receptors (Rattus norvegicus, UniProt P14842); assay: Apparent antagonist dissociation constant (KB) at 5HT2 receptors, serotonin-induced contraction of isolated rat external jugular vein; format: cell-based, rat (male Wistar)
T1 construct: from tissue; host or cells: rat external jugular vein (isolated, male Wistar)
T1 sequence (P14842 whole entry): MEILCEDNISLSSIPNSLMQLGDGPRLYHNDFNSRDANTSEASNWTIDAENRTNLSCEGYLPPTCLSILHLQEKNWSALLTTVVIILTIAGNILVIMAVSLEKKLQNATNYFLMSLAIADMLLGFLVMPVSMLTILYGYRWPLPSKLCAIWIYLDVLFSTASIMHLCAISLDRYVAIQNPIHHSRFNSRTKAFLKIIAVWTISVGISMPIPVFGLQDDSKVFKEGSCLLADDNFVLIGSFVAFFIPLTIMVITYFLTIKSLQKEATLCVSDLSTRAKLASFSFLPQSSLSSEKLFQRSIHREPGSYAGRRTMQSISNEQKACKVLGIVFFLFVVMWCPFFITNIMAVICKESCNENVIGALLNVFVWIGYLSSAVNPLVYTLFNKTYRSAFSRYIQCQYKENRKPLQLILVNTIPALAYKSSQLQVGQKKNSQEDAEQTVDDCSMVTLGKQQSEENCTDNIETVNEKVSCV
Excerpt: Male Wistar rats (about 150-300 gram weight) were killed and their external jugular veins and thoracic aortas dissected free of connective tissue, cannulated in situ and placed in a modified Krebs' bicarbonate buffer in a suitable tissue bath. Two L-shaped 30-gauge stainless-steel hypodermic needles were inserted in each cannula and the dissected vessels gently pushed onto the needles. One needle was attached with thread to a stationary glass rod and the other to the transducer. [The procedure employed was that described by Hooker, Calkins and Fleisch, Blood Vessels, 14, 1, (1977) for use with circular smooth muscle preparations.]
The modified Krebs' bicarbonate buffer was composed of the following (concentrations in millimoles): sodium chloride, 118.2; potassium chloride, 4.6; calcium chloride dihydrate, 1.6; potassium dihydrogenphosphate, 1.2; magnesium sulfate, 1.2; dextrose, 10.0; sodium bicarbonate, 24.8; and water q.s. to 1000 g. The tissue baths were maintained at 37° C. and were aerated with 95% oxygen: 5% carbon dioxide (v:v). An initial optimum resting force of 1 g and 4 g was applied to the jugular vein and aorta, respectively. Isometric contractions were recorded as changes in grams of force on a Beckman Dynograph with Statham UC-3 transducers and microscale accessory attachment. Tissues were allowed to equilibrate 1 to 2 hours before exposure to drugs. Control responses to serotonin in the jugular vein and to norepinephrine in the aorta were obtained. The vessels were then incubated with appropriate concentrations of the test compound for one hour. Responses to serotonin or to norepinephrine were then repeated in the presence of the test compound. Contraction to serotonin was evaluated in the jugular vein since this tissue produces marked responses to serotonin in the absence of alpha receptors. See Cohen and Wiley, J. Pharm. Exp. Ther., 205, 400 (1978). Alpha receptor antagonist activity was evaluated in the aorta.
Apparent antagonist dissociation constants were determined for each concentration of the test compound according to the following equation: [formula] wherein [B] is the concentration of the antagonist and the dose ratio is the ED50 of the agonist in the presence of the antagonist divided by the control ED50. […] The -log KB values obtained for representative sensitive compounds of this invention and are given below in Table 1. ln the Table, column I provides the Example Number of the compound evaluated in the screen; columns 2-6, the identity of the compound evaluated in the screen when taken with the structure provided; and column 7, the apparent dissociation constant for the test compound.

Male Rats [1] = assay: Copulatory performance of male rats (Non-Maters and Non-Ejaculators), subcutaneous administration, percent responding (Table II); format: in vivo, rat (male Sprague-Dawley)
Procedure: (§1) Adult male rats of the Sprague-Dawley strain were used in these studies. The sexual behavior evaluations were conducted at 2-week intervals beginning at 6 months of age and ending at 12 months of age. During the initial screening process, the male rats of various levels of sexual performance were selected for compound testing. […] Prior to treatment with a drug solution, each male rat was required to have at least two consecutive vehicle tests with similar sexual performance. Following each compound testing, additional vehicle tests were performed.
(§2) The mating tests were performed during the dark phase of the lighting cycle using red light illumination. Each behavioral test was initiated with the introduction of a receptive female rat into the arena and was terminated either 30 minutes later or immediately following the first postejaculatory mount. The indiees of mating performance that were evaluated for the rats capable of ejaculation included mount latency (the time interval from the introduction of the female rat to the first mount); intromission latency (the time interval from the introduction of the female rat to the first intromission); ejaculatory latency (the time interval from intromission to ejaculation); postejaculatory interval (the time from ejaculation to the next mount); mount frequency (the total number of mounts with or without intromission prior to ejaculation); intromission frequency (the number of mounts with intromission prior to ejaculation); intromission efficiency (the intromission frequency divided by the mount frequency); copulatory rate (the number of mounts per minute); copulatory frequency (the number of mounts prior to ejaculation); and copulatory efficiency (the number of mounts with intromission divided by the total number of mounts).
(§3) Each male rat was given a solution containing either the vehicle alone in water or the compound of Example 1, (8β)-N-cyclohexyl-1-isopropyl-6-methylergoline-8-carboxamide, in the same vehicle. Vehicle was made of 1 mM (millimolar) acetic acid and 1 mM ascorbic acid.
(§4) The results of these studies are set forth below in Tables II-VII. In the Tables "N" is the number of animals used to generate the data, the average of which is provided. The specific description of the test performed is set forth in the heading of the Tables.

Male Rats [2] = assay: Copulatory performance of male rats, oral administration (Tables V, VI); format: in vivo, rat (male Sprague-Dawley); details: for Postejaculatory Latency / Ejaculatory Latency: 90 min before test, seconds per Table III; for Copulatory Rate: number of mounts per minute
Procedure: as §1, §2, §3, §4
All solutions were administered by gavage 90 minutes prior to testing.
Control responses were obtained from the same rats 2 weeks earlier
following vehicle administration by gavage.

Male Rats [3] = assay: Copulatory performance of male rats after various time periods following subcutaneous administration at 10 mcg/kg (Table VII); format: in vivo, rat (male Sprague-Dawley); details: 10 mcg/kg s.c.
Procedure: as §1, §2, §3, §4
Of Example 1 at 10 mcg/kg After Various Time Periods

## CC(C)n1cc2c3c(cccc31)[C@H]1C[C@@H](C(=O)NC3CCCCC3)CN(C)[C@@H]1C2 [Example 1, (8β)-N-Cyclohexyl-1-isopropyl-6-methylergoline-8-carboxamide]
5HT2 Receptors
  Kb: 0.214 nM
Male Rats [1]; 1 ng/kg s.c., 1/9 responding
  Non-Ejaculators Percent Responding: 11.1%
Male Rats [1]; 1 ng/kg s.c., 1/16 responding
  Non-Maters Percent Responding: 6.3%
Male Rats [1]; 10 ng/kg s.c., 4/14 responding
  Non-Maters Percent Responding: 28.6%
Male Rats [1]; 10 ng/kg s.c., 9/20 responding
  Non-Ejaculators Percent Responding: 45.0%
Male Rats [1]; 100 ng/kg s.c., 6/11 responding
  Non-Ejaculators Percent Responding: 54.5%
Male Rats [1]; 100 ng/kg s.c., 8/14 responding
  Non-Maters Percent Responding: 57.1%
Male Rats [1]; 1000 ng/kg s.c., 7/12 responding
  Non-Maters Percent Responding: 58.3%
Male Rats [1]; 1000 ng/kg s.c., 9/16 responding
  Non-Ejaculators Percent Responding: 56.3%
Male Rats [1]; 10000 ng/kg s.c., 6/11 responding
  Non-Maters Percent Responding: 54.5%
Male Rats [1]; 10000 ng/kg s.c., 11/18 responding
  Non-Ejaculators Percent Responding: 61.1%
Male Rats [2]; 0.01 mcg/kg oral gavage, N = 17, control 358.5 ± 23.1
  Postejaculatory Latency: 370.2 ± 23.7
Male Rats [2]; 0.01 mcg/kg oral gavage, N = 17, control 713.6 ± 58.1, significant (*)
  Ejaculatory Latency: 689.2 ± 91.2
Male Rats [2]; 0.01 mcg/kg oral gavage, N = 17, control 0.43 ± 0.04
  Copulatory Efficiency: 0.46 ± 0.05
Male Rats [2]; 0.01 mcg/kg oral gavage, N = 17, control 29.7 ± 2.9, significant (*)
  Mount Frequency: 27.5 ± 4.4
Male Rats [2]; 0.01 mcg/kg oral gavage, N = 17, control 2.5 ± 0.2
  Copulatory Rate: 2.3 ± 0.2
Male Rats [2]; 0.1 mcg/kg oral gavage, N = 14, control 381.9 ± 13.4, significant (*)
  Postejaculatory Latency: 313.4 ± 12.0
Male Rats [2]; 0.1 mcg/kg oral gavage, N = 14, control 735.4 ± 51.9, significant (*)
  Ejaculatory Latency: 486.5 ± 70.8
Male Rats [2]; 0.1 mcg/kg oral gavage, N = 14, control 0.60 ± 0.05
  Copulatory Efficiency: 0.60 ± 0.05
Male Rats [2]; 0.1 mcg/kg oral gavage, N = 14, control 19.4 ± 2.4
  Mount Frequency: 18.7 ± 2.1
Male Rats [2]; 0.1 mcg/kg oral gavage, N = 14, control 1.7 ± 0.2, significant (*)
  Copulatory Rate: 2.5 ± 0.4
Male Rats [2]; 1.0 mcg/kg oral gavage, N = 8, control 384.1 ± 23.5
  Postejaculatory Latency: 322.1 ± 15.3
Male Rats [2]; 1.0 mcg/kg oral gavage, N = 8, control 646.3 ± 51.0
  Ejaculatory Latency: 415.9 ± 62.3
Male Rats [2]; 1.0 mcg/kg oral gavage, N = 8, control 0.59 ± 0.06
  Copulatory Efficiency: 0.58 ± 0.04
Male Rats [2]; 1.0 mcg/kg oral gavage, N = 8, control 21.1 ± 3.9, significant (*)
  Mount Frequency: 16.8 ± 1.8
Male Rats [2]; 1.0 mcg/kg oral gavage, N = 8, control 2.0 ± 0.4
  Copulatory Rate: 2.7 ± 0.4
Male Rats [2]; 10.0 mcg/kg oral gavage, N = 12, control 345.1 ± 20.3, significant (*)
  Postejaculatory Latency: 299.7 ± 15.1
Male Rats [2]; 10.0 mcg/kg oral gavage, N = 12, control 731.0 ± 87.0, significant (*)
  Ejaculatory Latency: 434.2 ± 37.9
Male Rats [2]; 10.0 mcg/kg oral gavage, N = 12, control 0.43 ± 0.03
  Copulatory Efficiency: 0.49 ± 0.04
Male Rats [2]; 10.0 mcg/kg oral gavage, N = 12, control 25.9 ± 1.6
  Mount Frequency: 22.9 ± 1.2
Male Rats [2]; 10.0 mcg/kg oral gavage, N = 12, control 2.2 ± 0.2, significant (*)
  Copulatory Rate: 3.3 ± 0.3
Male Rats [2]; 100.0 mcg/kg oral gavage, N = 8, control 417.9 ± 28.4
  Postejaculatory Latency: 350.6 ± 29.5
Male Rats [2]; 100.0 mcg/kg oral gavage, N = 8, control 804.6 ± 73.5, significant (*)
  Ejaculatory Latency: 366.1 ± 52.2
Male Rats [2]; 100.0 mcg/kg oral gavage, N = 8, control 0.51 ± 0.06, significant (*)
  Copulatory Efficiency: 0.69 ± 0.04
Male Rats [2]; 100.0 mcg/kg oral gavage, N = 8, control 19.4 ± 1.7, significant (*)
  Mount Frequency: 14.4 ± 1.3
Male Rats [2]; 100.0 mcg/kg oral gavage, N = 8, control 1.4 ± 0.1, significant (*)
  Copulatory Rate: 2.6 ± 0.4
Male Rats [3]; 0.5 hours, N = 11, control 1.7 ± 0.2, significant (*)
  Copulatory Rate: 2.6 ± 0.4 mounts/minute
Male Rats [3]; 0.5 hours, N = 11, control 368.3 ± 23.0
  Postejaculatory Interval: 333.9 ± 10.9 s
Male Rats [3]; 0.5 hours, N = 11, control 850.4 ± 99.2, significant (*)
  Ejaculatory Latency: 454.1 ± 78.4 s
Male Rats [3]; 8.0 hours, N = 11, control 2.6 ± 0.2, significant (*)
  Copulatory Rate: 3.9 ± 0.5 mounts/minute
Male Rats [3]; 8.0 hours, N = 11, control 349.5 ± 16.8, significant (*)
  Postejaculatory Interval: 320.1 ± 17.0 s
Male Rats [3]; 8.0 hours, N = 11, control 653.1 ± 61.7, significant (*)
  Ejaculatory Latency: 402.3 ± 59.7 s
Male Rats [3]; 24.0 hours, N = 15, control 2.0 ± 0.3, significant (*)
  Copulatory Rate: 2.8 ± 0.4 mounts/minute
Male Rats [3]; 24.0 hours, N = 15, control 422.4 ± 25.5
  Postejaculatory Interval: 391.7 ± 18.7 s
Male Rats [3]; 24.0 hours, N = 15, control 815.5 ± 64.6, significant (*)
  Ejaculatory Latency: 604.1 ± 68.4 s
Male Rats [3]; 48.0 hours, N = 11, control 2.4 ± 0.2, significant (*)
  Copulatory Rate: 2.5 ± 0.2 mounts/minute
Male Rats [3]; 48.0 hours, N = 11, control 364.8 ± 27.8, significant (*)
  Postejaculatory Interval: 365.4 ± 20.2 s
Male Rats [3]; 48.0 hours, N = 11, control 591.0 ± 33.8
  Ejaculatory Latency: 531.8 ± 60.6 s
